In experiment [1] the target is T1, Delta-type opioid receptor (Homo sapiens, UniProt P41143). Description: Binding inhibition of [3H]- -naltrindole (0.15 nM) to membranes in CHO cells expressing Opioid receptor delta 1. The experiment is classed as cell-based.
Another experiment concerns the target Mu-type opioid receptor (Rattus norvegicus, UniProt P33535). Description: Binding affinity towards mu opioid receptor using [3H]- -DAMGO (1.5 nM) as radioligand in rat brain membranes. It is filed as cell membranes.
The target of experiment [2] is Kappa-type opioid receptor (Cavia porcellus, UniProt P41144). Briefly: Binding affinity towards Opioid receptor kappa 1 using [3H]- U-69,593 (1.5 nM) as radioligand in guinea pig brain membranes. It is filed as cell membranes, Membrane.
In experiment [3] the target is T1, Delta-type opioid receptor. Briefly: Compound was tested for inhibition of binding of [3H]- -naltrindole (0.15 nM) to membranes from CHO cells expressing human delta opioid receptor. The experiment is classed as cell membranes.

T1 sequence (P41143 whole entry): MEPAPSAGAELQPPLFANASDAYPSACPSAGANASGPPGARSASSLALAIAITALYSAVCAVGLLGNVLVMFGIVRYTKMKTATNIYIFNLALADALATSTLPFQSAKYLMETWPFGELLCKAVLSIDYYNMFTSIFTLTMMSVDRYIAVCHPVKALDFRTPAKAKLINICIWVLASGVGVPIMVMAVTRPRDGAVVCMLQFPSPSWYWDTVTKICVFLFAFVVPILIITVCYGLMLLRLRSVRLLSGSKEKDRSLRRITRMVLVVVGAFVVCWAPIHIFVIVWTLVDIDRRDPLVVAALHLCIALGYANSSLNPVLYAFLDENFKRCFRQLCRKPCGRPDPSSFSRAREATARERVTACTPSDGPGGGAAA
Sequence of Mu-type opioid receptor (P33535 whole entry): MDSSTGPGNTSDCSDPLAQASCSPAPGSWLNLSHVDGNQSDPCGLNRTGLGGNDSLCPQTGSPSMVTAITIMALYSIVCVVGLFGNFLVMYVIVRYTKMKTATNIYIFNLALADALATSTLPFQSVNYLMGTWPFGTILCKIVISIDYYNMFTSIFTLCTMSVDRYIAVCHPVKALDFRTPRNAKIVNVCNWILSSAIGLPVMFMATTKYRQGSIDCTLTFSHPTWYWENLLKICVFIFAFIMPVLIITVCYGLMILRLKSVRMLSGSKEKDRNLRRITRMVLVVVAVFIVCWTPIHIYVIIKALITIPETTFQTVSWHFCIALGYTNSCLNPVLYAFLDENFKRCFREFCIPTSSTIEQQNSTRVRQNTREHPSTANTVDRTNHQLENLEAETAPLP
Sequence of Kappa-type opioid receptor (P41144 whole entry): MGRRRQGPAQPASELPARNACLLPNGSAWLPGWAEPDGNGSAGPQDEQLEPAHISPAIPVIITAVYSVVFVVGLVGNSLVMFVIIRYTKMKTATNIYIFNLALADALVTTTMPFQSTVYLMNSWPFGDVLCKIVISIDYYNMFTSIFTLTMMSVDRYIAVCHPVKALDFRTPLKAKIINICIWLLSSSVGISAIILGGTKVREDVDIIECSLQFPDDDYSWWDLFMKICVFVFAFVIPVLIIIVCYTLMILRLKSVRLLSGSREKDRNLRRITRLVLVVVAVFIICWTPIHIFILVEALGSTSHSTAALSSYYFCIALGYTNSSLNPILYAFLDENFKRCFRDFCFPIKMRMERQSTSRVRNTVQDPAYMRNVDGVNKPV

For `C=CCN1CCN(C(c2ccccc2)c2ccc(C(=O)O)cc2)CC1` (configuration not stated), in experiment [1], the IC50 came to 8.1 µM.
The same measure, in the same setting: the value for `C=CCN1CCN(C(c2ccccc2)c2ccc(C(=O)OCC)cc2)CC1` (configuration not stated) was 1.39 µM.
Consider `C=CCN1C[C@H](C)N([C@H](c2ccccc2)c2ccc(C(=O)N(CC)CC)cc2)C[C@H]1C`, for which the IC50 at Mu-type opioid receptor was 6.5 µM; in experiment [2], greater than 10 µM; in experiment [1], 0.0011 µM.
`C=CCN1CCN(C(c2ccccc2)c2ccc(C(=O)N(Cc3cccnc3)CC(OCCC)OCCC)cc2)CC1` (configuration not stated): the IC50 was greater than 10 µM on Mu-type opioid receptor and 0.004 µM in experiment [1].
`C=CCN1CCN(C(c2ccccc2)c2ccc(C(=O)OC)cc2)CC1` (configuration not stated) gave a half-inhibitory concentration (IC50) in experiment [1] of 0.607 µM. This lies in the sub-micromolar range.
Same read-out and setting: the value for `C=CCN1CCN(C(c2ccccc2)c2ccc(-c3cccs3)cc2)CC1` (configuration not stated) was 2.6 µM; that for `C=CCN1CCN(C(c2ccccc2)c2ccc(C(=O)NCC)cc2)CC1` (configuration not stated) was 0.36 µM.
Turning to `C=CCN1CCN([C@H](c2ccc(C(=O)N(CC)CC)cc2)c2cccc(OC)c2)CC1`, the figures for the IC50 (at Mu-type opioid receptor; in experiment [2]; in experiment [1]) were greater than 10 µM, greater than 10 µM and 0.0074 µM, respectively.
Regarding `C=CCN1C[C@H](C)N([C@@H](c2ccc(C(=O)O)cc2)c2cccc(OC)c2)C[C@H]1C`, the IC50 is greater than 10 µM on Mu-type opioid receptor and 0.45 µM in experiment [1].
As for `C=CCN1CCN(C(c2ccccc2)c2ccc(C(=O)Nc3ccc(OC)cc3)cc2)CC1` (configuration not stated), the IC50 in experiment [1] amounted to 1.9 µM.
`C=CCN1C[C@H](C)N([C@@H](c2ccc(C(=O)OC)cc2)c2cccc(OC)c2)C[C@H]1C`: the IC50 on Mu-type opioid receptor was found to be 3.6 µM; in experiment [1] it was 0.24 µM.
The corresponding values for `C=CCN1C[C@H](C)N(C(c2ccccc2)c2ccccc2)C[C@H]1C` are 0.38 µM and 0.42 µM.
As for `C=CCN1CCN(C(c2ccccc2)c2ccc(C(=O)N(C)C)cc2)CC1` (configuration not stated), the values for the IC50 (on Mu-type opioid receptor; in experiment [1]) were greater than 50 µM and 0.0443 µM, respectively.
Consider `C=CCN1CCN(C(c2ccccc2)c2ccc(-c3cccnc3)cc2)CC1` (configuration not stated), for which, in experiment [1], the IC50 worked out at 0.5 µM.
Consider `C=CCN1C[C@H](C)N([C@@H](c2ccc(C(=S)N(CC)CC)cc2)c2cccc(OC)c2)C[C@H]1C`, for which the results for the IC50 (at Mu-type opioid receptor; in experiment [2]; in experiment [1]) were 6.3 µM, 8.6 µM and 0.0053 µM, respectively.
Compound `C=CCN1CCN(C(c2ccccc2)c2ccc(-c3ccccc3)cc2)CC1` (configuration not stated) displayed an IC50 in experiment [1] of 1.72 µM.
Regarding `C=CCN1C[C@H](C)N([C@@H](c2ccc(-c3ccccn3)cc2)c2cccc(OC)c2)C[C@H]1C`, the IC50 on Mu-type opioid receptor amounted to 6.4 µM; in experiment [2], 2.1 µM; in experiment [1], 0.022 µM.
Regarding `C=CCN1CCN([C@@H](c2ccccc2)c2ccc(C(=O)N(CC)CC)cc2)CC1`, the IC50 was greater than 10 µM at Mu-type opioid receptor, greater than 10 µM in experiment [2] and 0.0041 µM in experiment [1].
On to `C=CCN1CCN(C(c2ccccc2)c2ccc(C(=O)N3CCCCC3)cc2)CC1` (configuration not stated), for which the figures for the IC50 (at Mu-type opioid receptor; in experiment [1]) were greater than 21.6 µM and 0.0824 µM, respectively.
For `C=CCN1CCN(C(c2ccccc2)c2ccc(-c3ccccn3)cc2)CC1` (configuration not stated), the IC50 in experiment [1] was determined as 0.25 µM.
For `C=CCN1CCN(C(c2ccccc2)c2ccc(C(=O)N(CC)CC)cc2)CC1` (configuration not stated), the half-inhibitory concentration (IC50) at Mu-type opioid receptor was greater than 10 µM; in experiment [3], 0.005 µM.
As for `C=CCN1CCN(C(c2ccccc2)c2ccc(C(=O)N(CCC)CC3CC3)cc2)CC1` (configuration not stated), the IC50 at Mu-type opioid receptor was greater than 10 µM; in experiment [1], 0.003 µM.
For `C=CCN1CCN(C(c2ccccc2)c2ccc(C(=O)N(CCC)CCC)cc2)CC1` (configuration not stated) the same measures were 41.6 µM and 0.0072 µM.

One may read the IC50 as the concentration that inhibits the measured activity by half. A high value points to weaker potency.

The values above are taken from ChEMBL document CHEMBL1132049, “Synthesis of novel analogues of the delta opioid ligand SNC-80 using REM resin” (Bioorg Med Chem Lett, 1999).
